In ChEMBL document CHEMBL1201862, “PubChem BioAssay data set” (2004):
Calls of active or inactive are those of the source.

What was measured:
[1] = molecular target: Botulinum neurotoxin type F (Clostridium botulinum, UniProt P30996); experiment: High-throughput multiplex microsphere dose response for inhibitors of toxin protease, specifically Botulinum neurotoxin light chain F protease, compounds from Cherry Pick 02.; assay type: functional; conditions: read-out: EC50_MICROM
Protein skinhead-1 = molecular target: T1, Protein skinhead-1 (Caenorhabditis elegans, UniProt P34707); assay type: functional
T1 sequence (P34707 whole entry): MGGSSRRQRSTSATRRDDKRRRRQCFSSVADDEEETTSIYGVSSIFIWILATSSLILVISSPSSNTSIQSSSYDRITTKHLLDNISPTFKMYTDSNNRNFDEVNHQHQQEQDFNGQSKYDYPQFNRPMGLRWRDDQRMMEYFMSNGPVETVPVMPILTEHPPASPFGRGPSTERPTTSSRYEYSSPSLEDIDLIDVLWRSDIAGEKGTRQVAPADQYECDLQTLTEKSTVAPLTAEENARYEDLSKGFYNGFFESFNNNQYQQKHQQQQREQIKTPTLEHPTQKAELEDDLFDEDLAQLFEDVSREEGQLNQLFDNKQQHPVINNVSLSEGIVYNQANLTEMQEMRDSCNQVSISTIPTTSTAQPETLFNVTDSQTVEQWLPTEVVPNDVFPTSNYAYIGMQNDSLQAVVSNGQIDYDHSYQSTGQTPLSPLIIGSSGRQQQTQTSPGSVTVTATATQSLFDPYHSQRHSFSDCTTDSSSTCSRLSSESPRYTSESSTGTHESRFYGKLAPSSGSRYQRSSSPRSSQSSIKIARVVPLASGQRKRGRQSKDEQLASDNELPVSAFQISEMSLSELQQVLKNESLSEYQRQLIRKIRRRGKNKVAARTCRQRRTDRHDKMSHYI

[2] = molecular target: T2, Polyadenylate-binding protein 1 (Homo sapiens, UniProt P11940); experiment: MLLE domain peptide-binding blockers, IC50 – biochemical, fluorescence polarization, FITC-PAM2 peptide, dose response (AID 602259); assay type: functional; conditions: read-out: IC50_Mean
[3] = molecular target: T2, Polyadenylate-binding protein 1; experiment: MLLE binding blockers, Cy5 peptide tracer – biochemical, fluorescence polarization, Cy5-PAM2 peptide, secondary, miRNA deadenylation inhibitor project, dose response (AID 602260); assay type: functional; conditions: read-out: IC50_Mean
Mu-type opioid receptor = Mu-type opioid receptor (Homo sapiens, UniProt P35372); assay type: functional, cell-based;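 note: U2OS cells with beta-arrestin recruitment to OPRM1 by beta-gal complementation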
[4] = molecular target: 5-hydroxytryptamine receptor 2A (Mus musculus, UniProt P35363); assay type: functional, cell-based;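 note: CHO-K1 cells with tagged receptor and beta-arrestin; agonist potency measured as compound-induced activation of the receptor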
HEK293 = experiment: viability loss in HEK293T cells – cell-based, ATP luminescence, cherry-pick samples, cytotoxicity control, dose response (AID 687005); assay type: functional; conditions: Homo sapiens;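 note: cells exposed to compound for 48 hours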
HepG2 = experiment: HepG2 Cytotoxicity Assay Measured in Cell-Based System Using Plate Reader - 7071-02_Inhibitor_Dose_CherryPick_Activity.; assay type: functional; conditions: Homo sapiens
[5] = HEK293 Cytotoxicity Assay Measured in Cell-Based System Using Plate Reader - 7071-01_Inhibitor_Dose_CherryPick_Activity_Set2.; assay type: functional
HeLa = experiment: viability loss in HeLa cells – cell-based, ATP luminescence, cherry-pick samples, cytotoxicity control, dose response (AID 687004); assay type: functional; conditions: Homo sapiens
Cryptococcus neoformans = experiment: PubChem AID 686997; assay type: functional, organism-based
[6] = molecular target: Potassium channel subfamily K member 9 (Homo sapiens, UniProt Q9NPC2); experiment: KCNK9 flux blockade, concentration-response – cell-based, FluxOR thallium flux, selectivity assay for TASK1 inhibitor project, SAR follow-up (AID 652211); assay type: functional;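 note: potency is for inhibitors of the channel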
[7] = viability loss in LCL cells – cell-based, plate reader, dry powder, set 2, cytotoxicity control, dose response (AID 624367); assay type: functional
[8] = cytotoxicity in HEK293 background cells – cell-based, dry powder, set 2, counter-screen for EBV LMP1 inhibitor project, dose response (AID 624374); assay type: functional
[9] = Dd2 parasite growth inhibition in erythrocytes – SYBR Green, dry powder samples, set 9, dose response (AID 1159568); assay type: functional, cell-based

T2 sequence (P11940 whole entry, the tested form may be a part): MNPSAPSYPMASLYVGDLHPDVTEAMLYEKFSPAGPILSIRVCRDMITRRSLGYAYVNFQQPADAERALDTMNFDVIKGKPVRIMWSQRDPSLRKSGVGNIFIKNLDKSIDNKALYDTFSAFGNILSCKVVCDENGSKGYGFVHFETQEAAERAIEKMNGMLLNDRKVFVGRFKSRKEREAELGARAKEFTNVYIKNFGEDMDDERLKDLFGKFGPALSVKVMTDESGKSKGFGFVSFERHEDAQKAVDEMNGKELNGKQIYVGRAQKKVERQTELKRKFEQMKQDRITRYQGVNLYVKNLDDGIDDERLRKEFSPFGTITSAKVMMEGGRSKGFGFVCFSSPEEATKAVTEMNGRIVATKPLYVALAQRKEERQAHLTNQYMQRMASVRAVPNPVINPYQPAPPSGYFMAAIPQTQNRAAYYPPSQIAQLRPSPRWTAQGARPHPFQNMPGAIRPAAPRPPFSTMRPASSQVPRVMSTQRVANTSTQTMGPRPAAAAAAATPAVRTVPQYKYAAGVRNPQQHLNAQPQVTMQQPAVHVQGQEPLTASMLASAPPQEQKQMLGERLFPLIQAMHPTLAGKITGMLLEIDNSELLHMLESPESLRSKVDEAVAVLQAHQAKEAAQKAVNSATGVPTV
Sequence of 5-hydroxytryptamine receptor 2A (P35363 whole entry): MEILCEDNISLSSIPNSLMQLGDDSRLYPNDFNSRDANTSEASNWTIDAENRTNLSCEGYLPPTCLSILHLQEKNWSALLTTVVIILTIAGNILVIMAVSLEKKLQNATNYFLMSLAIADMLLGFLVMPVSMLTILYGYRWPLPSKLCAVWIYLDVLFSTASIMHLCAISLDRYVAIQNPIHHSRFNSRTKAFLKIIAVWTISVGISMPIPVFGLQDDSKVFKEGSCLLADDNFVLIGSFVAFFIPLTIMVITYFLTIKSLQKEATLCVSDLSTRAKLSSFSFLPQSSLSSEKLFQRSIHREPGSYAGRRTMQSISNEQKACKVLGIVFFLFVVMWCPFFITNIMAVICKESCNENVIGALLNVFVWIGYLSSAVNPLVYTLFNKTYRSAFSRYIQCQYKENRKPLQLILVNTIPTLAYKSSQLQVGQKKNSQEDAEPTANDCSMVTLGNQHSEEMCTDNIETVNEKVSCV
Sequence of Potassium channel subfamily K member 9 (Q9NPC2 whole entry): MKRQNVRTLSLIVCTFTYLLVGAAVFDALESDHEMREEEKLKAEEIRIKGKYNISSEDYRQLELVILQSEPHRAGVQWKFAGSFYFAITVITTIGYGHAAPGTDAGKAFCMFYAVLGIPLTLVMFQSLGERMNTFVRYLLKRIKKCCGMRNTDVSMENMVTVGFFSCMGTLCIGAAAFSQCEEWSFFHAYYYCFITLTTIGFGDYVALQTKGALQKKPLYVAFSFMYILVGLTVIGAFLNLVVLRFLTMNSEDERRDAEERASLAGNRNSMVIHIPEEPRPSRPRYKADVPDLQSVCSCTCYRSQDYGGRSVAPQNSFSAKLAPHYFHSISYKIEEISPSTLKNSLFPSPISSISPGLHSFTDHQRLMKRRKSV
Sequence of Botulinum neurotoxin type F (P30996 1-436 limits assumed): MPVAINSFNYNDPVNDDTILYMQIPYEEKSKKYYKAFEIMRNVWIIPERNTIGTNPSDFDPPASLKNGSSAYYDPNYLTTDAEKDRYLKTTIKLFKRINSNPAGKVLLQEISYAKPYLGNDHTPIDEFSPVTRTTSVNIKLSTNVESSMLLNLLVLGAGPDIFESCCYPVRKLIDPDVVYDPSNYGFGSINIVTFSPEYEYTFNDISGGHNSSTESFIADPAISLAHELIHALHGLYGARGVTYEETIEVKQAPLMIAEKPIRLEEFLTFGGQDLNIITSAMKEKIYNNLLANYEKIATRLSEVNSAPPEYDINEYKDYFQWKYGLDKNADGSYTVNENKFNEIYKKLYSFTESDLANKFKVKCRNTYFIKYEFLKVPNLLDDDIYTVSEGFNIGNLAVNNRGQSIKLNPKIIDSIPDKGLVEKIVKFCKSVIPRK
Sequence of Mu-type opioid receptor (P35372 whole entry): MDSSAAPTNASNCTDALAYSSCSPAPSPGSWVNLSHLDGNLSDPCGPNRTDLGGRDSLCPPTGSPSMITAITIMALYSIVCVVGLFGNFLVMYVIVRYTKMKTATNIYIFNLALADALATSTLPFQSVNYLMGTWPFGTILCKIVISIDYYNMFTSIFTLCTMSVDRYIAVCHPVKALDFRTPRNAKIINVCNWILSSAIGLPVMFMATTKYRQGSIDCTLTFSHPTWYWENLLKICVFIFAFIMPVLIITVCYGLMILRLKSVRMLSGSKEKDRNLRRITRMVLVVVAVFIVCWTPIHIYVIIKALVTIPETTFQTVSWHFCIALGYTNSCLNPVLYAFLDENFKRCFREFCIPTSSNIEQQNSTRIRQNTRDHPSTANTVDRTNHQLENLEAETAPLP

With `Cc1cc2cc(CNC(=O)c3ccc(S(=O)(=O)N(C)C)cc3)ccc2n1C` as the molecule, how does the EC50 [1] read?
Its EC50 is > 20 µM (inactive).

And the IC50 (Protein skinhead-1)?
The IC50 was > 100 µM (inactive).

What about the IC50 [2] of the same molecule?
Its IC50 is > 66 µM (inactive).

What about the IC50 [3] of the same molecule?
The IC50 was > 66 µM (inactive).

What does the source list for `COc1ccc(CN2CCN(c3ncccn3)CC2)c(OC)c1`?
EC50 (Mu-type opioid receptor): 92.5 µM (inactive); EC50 [4]: 0.322 µM (active)

With `O=C(CC1CC1)N1[C@@H]2CN(S(=O)(=O)c3ccccc3)c3ccccc3[C@@H]2[C@@H]1CO` as the molecule, how does the AC50 (HEK293) read?
Its AC50 is 28 µM (active).

What about the AC50 (HepG2) of the same molecule?
Its AC50 is 19.8 µM (active).

And the AC50 [5]?
Its AC50 is 28 µM (active).

For `COC(=O)C1=C(C)N(Cc2ccc(Cl)cc2)C(=S)NC1c1cccc(Cl)c1` (configuration not stated), which AC50 (HeLa) is on record?
Its AC50 is > 47 µM (inactive).

What about the AC50 (HEK293) of the same molecule?
The AC50 was 23.4 µM (active).

What about the AC50 (Cryptococcus neoformans) of the same molecule?
Its AC50 is > 70 µM (inactive).

And the AC50 [5]?
The AC50 was 23.4 µM (active).

With `O=C(Nc1cccc(NC(=O)C2CCCCC2)c1)c1ccccc1` as the molecule, how does the IC50 [6] read?
The IC50 was 8 µM (active).

Which results are given for `CC(C)(C)[S@+]([O-])N1Cc2cc(C(=O)NCC(F)(F)F)nc(-c3cccc(-c4cccc(F)c4)c3)c2[C@@H]1CCO`?
AbsAC35 [7]: 124.56 µM; AbsAC35 [8]: 111.16 µM; AC50 [9]: 6.29 µM (active)
